# PubChem BioAssay (NCI)
#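 Compound exposure: 48 hours, 5 concentrations, 96-well plates. GI50 is the concentration that inhibits growth by half. TGI: concentration producing complete growth inhibition.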
# What was measured:
# Experiment in all cases: NCI anticancer screen, dose series, 48 h
# NCI/ADR-RES ovarian = test system: NCI/ADR-RES ovarian
# HT29 colon = test system: HT29 colon
# 786-0 renal = test system: 786-0 renal
# OVCAR-3 ovarian = test system: OVCAR-3 ovarian
# OVCAR-4 ovarian = test system: OVCAR-4 ovarian
# HCT-15 colon = test system: HCT-15 colon
# MDA-MB-435 = test system: MDA-MB-435
# HOP-92 NSCLC = test system: HOP-92 NSCLC
# HCC-2998 colon = test system: HCC-2998 colon
# SK-OV-3 ovarian = test system: SK-OV-3 ovarian
# KM12 colon = test system: KM12 colon
# RXF 393 renal = test system: RXF 393 renal
# SW-620 colon = test system: SW-620 colon
# HOP-62 NSCLC = test system: HOP-62 NSCLC
# CAKI-1 renal = test system: CAKI-1 renal
# MALME-3M melanoma = test system: MALME-3M melanoma
# COLO 205 colon = test system: COLO 205 colon
# BT-549 breast = test system: BT-549 breast
# OVCAR-8 ovarian = test system: OVCAR-8 ovarian
# SF-539 CNS = test system: SF-539 CNS
# HCT-116 colon = test system: HCT-116 colon
# T-47D breast = test system: T-47D breast
# SK-MEL-28 melanoma = test system: SK-MEL-28 melanoma
# NCI-H460 lung = test system: NCI-H460 lung
# DU-145 prostate = test system: DU-145 prostate
# IGROV1 ovarian = test system: IGROV1 ovarian
# A549 NSCLC = test system: A549 NSCLC
# MCF7 breast = test system: MCF7 breast
# MOLT-4 leukemia = test system: MOLT-4 leukemia
# M14 melanoma = test system: M14 melanoma
# NCI-H23 lung = test system: NCI-H23 lung
# LOX IMVI melanoma = test system: LOX IMVI melanoma
# SK-MEL-5 melanoma = test system: SK-MEL-5 melanoma
# SF-295 CNS = test system: SF-295 CNS
# NCI-H522 lung = test system: NCI-H522 lung
# UACC-257 melanoma = test system: UACC-257 melanoma
# RPMI-8226 leukemia = test system: RPMI-8226 leukemia
# U251 CNS = test system: U251 CNS
# PC-3 prostate = test system: PC-3 prostate
# ACHN renal = test system: ACHN renal
# A498 renal = test system: A498 renal
# SNB-19 CNS = test system: SNB-19 CNS
# K-562 leukemia = test system: K-562 leukemia
# SR leukemia = test system: SR leukemia
# SN12C renal = test system: SN12C renal
# MDA-MB-468 breast = test system: MDA-MB-468 breast
# UACC-62 melanoma = test system: UACC-62 melanoma
# NCI-H226 lung = test system: NCI-H226 lung
# CCRF-CEM leukemia = test system: CCRF-CEM leukemia
# TK-10 renal = test system: TK-10 renal
# SF-268 CNS = test system: SF-268 CNS
# EKVX NSCLC = test system: EKVX NSCLC
# HS 578T breast = test system: HS 578T breast
# OVCAR-5 ovarian = test system: OVCAR-5 ovarian
# HL-60(TB) leukemia = test system: HL-60(TB) leukemia
structure (smiles),measurement,setting,value
Cc1nn(-c2ccccc2)c2nc(C)n(CC(=O)N/N=C/c3ccccc3O)c(=O)c12,GI50,NCI/ADR-RES ovarian,3.79 µM
same,TGI,NCI/ADR-RES ovarian,17.9 µM
same,GI50,HT29 colon,4.91 µM
same,TGI,HT29 colon,20.5 µM
same,GI50,786-0 renal,6.16 µM
same,TGI,786-0 renal,31.8 µM
same,GI50,OVCAR-3 ovarian,2.66 µM
same,TGI,OVCAR-3 ovarian,28 µM
same,GI50,OVCAR-4 ovarian,3.18 µM
same,TGI,OVCAR-4 ovarian,42.8 µM
same,GI50,HCT-15 colon,2.26 µM
same,TGI,HCT-15 colon,> 100 µM
same,GI50,MDA-MB-435,8.63 µM
same,TGI,MDA-MB-435,> 100 µM
same,GI50,HOP-92 NSCLC,3.29 µM
same,TGI,HOP-92 NSCLC,20.6 µM
same,GI50,HCC-2998 colon,4.29 µM
same,TGI,HCC-2998 colon,27.6 µM
same,GI50,SK-OV-3 ovarian,6.5 µM
same,TGI,SK-OV-3 ovarian,28.5 µM
same,GI50,KM12 colon,4.12 µM
same,TGI,KM12 colon,> 100 µM
same,GI50,RXF 393 renal,4.92 µM
same,TGI,RXF 393 renal,24.1 µM
same,GI50,SW-620 colon,4.22 µM
same,TGI,SW-620 colon,> 100 µM
same,GI50,HOP-62 NSCLC,4.63 µM
same,TGI,HOP-62 NSCLC,21.4 µM
same,GI50,CAKI-1 renal,4.93 µM
same,TGI,CAKI-1 renal,26.2 µM
same,GI50,MALME-3M melanoma,4.33 µM
same,TGI,MALME-3M melanoma,30 µM
same,GI50,COLO 205 colon,2.83 µM
same,TGI,COLO 205 colon,14.9 µM
same,GI50,BT-549 breast,3.74 µM
same,TGI,BT-549 breast,25.4 µM
same,GI50,OVCAR-8 ovarian,3.86 µM
same,TGI,OVCAR-8 ovarian,21.1 µM
same,GI50,SF-539 CNS,4.46 µM
same,TGI,SF-539 CNS,26.9 µM
same,GI50,HCT-116 colon,4.85 µM
same,TGI,HCT-116 colon,18.9 µM
same,GI50,T-47D breast,4.41 µM
same,TGI,T-47D breast,36.9 µM
same,GI50,SK-MEL-28 melanoma,4.58 µM
same,TGI,SK-MEL-28 melanoma,33.7 µM
same,GI50,NCI-H460 lung,3.59 µM
same,TGI,NCI-H460 lung,16.2 µM
same,GI50,DU-145 prostate,6.32 µM
same,TGI,DU-145 prostate,> 100 µM
same,GI50,IGROV1 ovarian,6.36 µM
same,TGI,IGROV1 ovarian,66.3 µM
same,GI50,A549 NSCLC,6.12 µM
same,TGI,A549 NSCLC,21.1 µM
same,GI50,MCF7 breast,3.62 µM
same,TGI,MCF7 breast,31.1 µM
same,GI50,MOLT-4 leukemia,2.59 µM
same,TGI,MOLT-4 leukemia,10.7 µM
same,GI50,M14 melanoma,2.89 µM
same,TGI,M14 melanoma,15.6 µM
same,GI50,NCI-H23 lung,4.62 µM
same,TGI,NCI-H23 lung,22.4 µM
same,GI50,LOX IMVI melanoma,1.78 µM
same,TGI,LOX IMVI melanoma,14 µM
same,GI50,SK-MEL-5 melanoma,3.75 µM
same,TGI,SK-MEL-5 melanoma,19.4 µM
same,GI50,SF-295 CNS,4.79 µM
same,TGI,SF-295 CNS,22.6 µM
same,GI50,NCI-H522 lung,3.4 µM
same,TGI,NCI-H522 lung,22.2 µM
same,GI50,UACC-257 melanoma,5.46 µM
same,TGI,UACC-257 melanoma,31.3 µM
same,GI50,RPMI-8226 leukemia,5.53 µM
same,TGI,RPMI-8226 leukemia,48.4 µM
same,GI50,U251 CNS,3.93 µM
same,TGI,U251 CNS,19.6 µM
same,GI50,PC-3 prostate,4.47 µM
same,TGI,PC-3 prostate,29.3 µM
same,GI50,ACHN renal,2.62 µM
same,TGI,ACHN renal,14.7 µM
same,GI50,A498 renal,19.3 µM
same,TGI,A498 renal,83.1 µM
same,GI50,SNB-19 CNS,7.44 µM
same,TGI,SNB-19 CNS,39.2 µM
same,GI50,K-562 leukemia,3.48 µM
same,TGI,K-562 leukemia,> 100 µM
same,GI50,SR leukemia,2.43 µM
same,TGI,SR leukemia,10.8 µM
same,GI50,SN12C renal,5.64 µM
same,TGI,SN12C renal,46 µM
same,GI50,MDA-MB-468 breast,3.36 µM
same,TGI,MDA-MB-468 breast,19.4 µM
same,GI50,UACC-62 melanoma,3.02 µM
same,TGI,UACC-62 melanoma,12.5 µM
same,GI50,NCI-H226 lung,12.9 µM
same,TGI,NCI-H226 lung,38.9 µM
same,GI50,CCRF-CEM leukemia,2.09 µM
same,TGI,CCRF-CEM leukemia,16.8 µM
same,GI50,TK-10 renal,7.5 µM
same,TGI,TK-10 renal,45.4 µM
same,GI50,SF-268 CNS,3.31 µM
same,TGI,SF-268 CNS,> 100 µM
same,GI50,EKVX NSCLC,2.55 µM
same,TGI,EKVX NSCLC,17 µM
same,GI50,HS 578T breast,9.4 µM
same,TGI,HS 578T breast,70.9 µM
same,GI50,OVCAR-5 ovarian,8.89 µM
same,TGI,OVCAR-5 ovarian,51.4 µM
same,GI50,HL-60(TB) leukemia,2.13 µM
same,TGI,HL-60(TB) leukemia,7.52 µM
